These results are taken from PubChem BioAssay AID1902 (Broad Institute, 2009).

Active and inactive are the calls of the source.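 The calls were made as follows: active = EC50 no more than a set limit of log units above the highest dose; inactive = the rest.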

The target of this test is S. pyogenes SKKanGAS, kanamycin survival, BacTiterGlo, 6 h. Description: SKKanGAS survival reduction under kanamycin, dose response, streptokinase promoter inhibitor project, SKKanGAS strain, luminescence, dose confirmation (AID 1902).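 Also: lower survival reflects blocked streptokinase promoter driving kanamycin resistance gene.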
As to `O=C(Nc1nnc(C2=COCCO2)o1)c1ccc(Cc2ccccc2)cc1`, the EC50 (commonly the concentration that produces a half-maximal response) was 1.47 µM.
Next, `CN1C(=O)/C(=C/c2ccccc2Cl)Sc2ccc(C(=O)NCc3cccnc3)cc21`: 4.69 µM.
Next, `Cc1cc(C)c2c(c1)NC(c1cc3c(cc1Br)OCO3)C1CC=CC21` (centres undefined): 8.13 µM.
Next, `COc1ccc(NP(=O)(Oc2ccc(Cl)cc2)Oc2ccc(Cl)cc2)cc1OC`: 7.25 µM.
With `O=c1c2ccccc2sn1-c1ccccc1`, the EC50 is 1.11 µM.
`Cc1ccc(C2(c3ccc(C)cc3)CC2C(=O)Nc2ccc([N+](=O)[O-])cc2O)cc1` (centres undefined): the EC50 was 2.15 µM.
The figure for `O=C(c1cccs1)N1N=C(c2ccccc2)CC1c1ccccc1` (centres undefined) is 6.41 µM.
Next, `CCN(CCn1cccn1)C(=O)CC1C(=O)NCCN1CCc1ccccc1` (centres undefined): > 15 µM (inactive); `CCN1CCN(Cc2ccc(NC(=O)c3ccc(C)c(/C=C/c4cnc(Nc5cc(N6CCNCC6)nc(C)n5)cn4)c3)cc2C(F)(F)F)CC1`: 8.41 µM; `CCc1ccc(/C=C2\SC(=S)N(CCCC(=O)Nc3ccccc3C(=O)O)C2=O)cc1`: 3.35 µM.
The figure for `CCN(CC)CCN(C(=O)C1=COCCO1)c1nc2cc(C)cc(C)c2s1` is > 15 µM (inactive).
As for `COc1ccc(-c2csc(Nc3ccc(S(=O)(=O)Nc4cc(C)on4)cc3)n2)cc1C`, the EC50 was 6.44 µM.
Turning to `C=CCn1c(O)c(C(CC)=Nc2ccc(N(CC)CC)cc2)c(=O)[nH]c1=O`, the EC50 was 1.66 µM.
Take `Cc1cc(NC(=O)/C=C/c2ccccc2Cl)n(-c2nc3ccccc3[nH]2)n1`: the EC50 is 1.9 µM.
The figure for `C/C(=N/Nc1cc(-c2ccccc2)nc(-c2ccccc2)n1)c1ccc(O)cc1` is 2.08 µM.
Next, `CC(C)CN1C(=S)SC(C)(C)C1n1oc(=O)n(-c2ccc(Cl)cc2)c1=O` (centres undefined): 4.33 µM; `Cc1ccc(-n2c(O)c(C=Nc3ccccc3-c3n[nH]c(=S)[nH]c3=O)c3ccccc3c2=O)cc1C`: 0.915 µM; `c1cn2c(NC3CCCCC3)c(-c3ccc(SC4CCCCC4)cc3)nc2cn1`: 1.97 µM.
For the compound `O=[N+]([O-])c1ccc(NCc2ccc(Cl)cc2)c2ccncc12`, the EC50 was 9.29 µM.
Next, `Cc1cc2oc(=O)cc(CN(C)Cc3ccccc3Cl)c2cc1C`: 4.2 µM; `CC(C)(C)c1ccc(OCC(=O)NNC(=S)NC(=O)c2ccco2)c(Br)c1`: less than 0.06 µM; `C/C(=N\NC(=O)COc1ccc(C)cc1C(C)C)c1cc2ccccc2o1`: 11 µM.
As for `CC(C)(C)c1cc(C(=O)Nc2ccc(F)cc2)n(Cc2ccc(F)cc2)n1`, the EC50 is 3.77 µM.
As to `COc1cccc2sc(Nc3nnc(-c4ccc(F)cc4)o3)nc12`, the EC50 was 0.546 µM.
For the compound `CCOC(=O)c1c(-c2ccc(C)o2)csc1NC(=O)COC(=O)c1ccc(NC(N)=O)cc1`, the EC50 is 2.53 µM.
In the case of `COC(=O)c1ccc(C(=O)OC)c(NC(=O)CN(C)Cc2cccc(Cl)c2Cl)c1`, the EC50 was 7.7 µM.
On to `Cc1ccc(C(=O)Nc2nc(-c3ccccc3)c(-c3ccccc3)o2)cc1`, for which the EC50 is 0.541 µM.
For the compound `O=C(COc1ccccc1-c1ccccc1)N/N=C/c1ccc2ccccc2c1`, the EC50 is 6.47 µM.
On to `Cc1nnc(Sc2cc(NCCCO)c([N+](=O)[O-])c3nonc23)s1`, for which the EC50 was 7.78 µM.
Regarding `O=[N+]([O-])/C=C/c1c(OCc2ccccc2)ccc2ccccc12`, the EC50 was 1.63 µM.
Regarding `CSc1ccc(/C=C2\CCn3c2nc2cc(C(=O)O)ccc2c3=O)cc1`, the EC50 was 6.15 µM.
Turning to `Cc1[nH]n2c(=O)cc(-c3ccc([N+](=O)[O-])cc3)nc2c1-c1ccccc1`, the EC50 was 0.319 µM.
For the compound `NNC(=O)CSc1nc(-c2ccccc2)nc2c1CCCC2`, the EC50 is > 15 µM (inactive).
Next, `Clc1ccc(-c2nnnn2-c2ccc(Cl)c(Cl)c2)cc1Cl`: 8.09 µM; `Cc1ccc(C(=O)NC2CCCC2)s1`: > 15 µM (inactive); `CCn1nc(NC(=O)c2ccncc2)c2cc3cc(C)ccc3nc21`: 2.66 µM.
On to `O=C1C=CC(=O)N1CCNc1ncc(C(F)(F)F)cc1Cl`, for which the EC50 is 10.4 µM.
Next, `Cc1ccc2nc(/N=C(\N)NC(=O)NC3CCCCC3)nc(C)c2c1`: 1.15 µM.
The figure for `Cc1ccc(NC(=S)NC2CCSc3ccccc32)cc1C` (centres undefined) is 4.63 µM; for `O=[N+]([O-])c1cccnc1N1CCC(c2cc(-c3ccc(Cl)cc3Cl)n[nH]2)CC1` it is 1.24 µM.
The figure for `CCOC(=O)C1=NN(C(=O)c2ccc(C)cc2)C(O)(c2ccc(Cl)cc2)C1` (centres undefined) is 3.06 µM; for `O=C1c2[nH]nc(-c3ccccc3O)c2C(c2cccc(Cl)c2)N1Cc1ccco1` (centres undefined) it is 7.4 µM; for `CC(C)=CCc1c(O)cc2c(c1O)C(=O)CC(c1ccc(O)cc1)O2` (centres undefined) it is 6.08 µM.
Regarding `CC(C)COc1ccc(-c2nn(-c3ccccc3)cc2/C=C2/SC(=S)N(CC(=O)O)C2=O)cc1`, the EC50 was 2.18 µM.
The figure for `CCCc1nnc(NC(=O)c2c(O)c3cccc4c3n(c2=O)CCC4)s1` is 6.91 µM; for `COc1ccc(C(=O)NC(=S)NNC(=O)c2ccco2)cc1` it is 4.48 µM; for `O=C(Cc1cccs1)Nc1cccc(-c2nc3cc4ccccc4cc3[nH]2)c1` it is 4.25 µM.
Regarding `CCCc1nc2ccccc2c(=O)n1NC(=O)c1c(O)c2cccc3c2n(c1=O)CCC3`, the EC50 was 2.6 µM.
Next, `CCC(C(=O)NCC1CCCO1)n1nc(C)c2sc3ccccc3c2c1=O` (centres undefined): > 15 µM (inactive); `O=C(CP(=O)(c1ccccc1)c1ccccc1)N/N=C/c1cc(Br)cc(Br)c1O`: 0.804 µM.
As to `c1ccc(-c2nc(-c3nccc4ccccc34)oc2-c2ccccc2)cc1`, the EC50 was 3.52 µM.
Next, `Cc1cc(C)c2ccc(NN)nc2c1O`: 6.08 µM.
Consider `COc1ccc(C2C(C(=O)c3ccccc3)=C(C)Nc3nc4ccccc4n32)c(OC)c1` (centres undefined), for which the EC50 was 6.1 µM.
The figure for `Cc1ccc2sc(NNC(=O)c3cc(=O)c4ccccc4o3)nc2c1C` is 1.18 µM; for `O=[N+]([O-])c1c(Nc2cccc(O)c2)cc(Cl)c2nonc12` it is 6.5 µM.
Next, `CCOc1ccc2c(c1)c1nnc(SCC(=O)N3CCC(C)CC3)nc1n2C`: 15.6 µM; `NS(=O)(=O)c1ccc(N/N=C2/CCCCC2C2CCCCC2)c([N+](=O)[O-])c1` (centres undefined): 3.11 µM; `Cc1ccc(/C=C/c2ccc(=O)n(Cc3ccccc3Cl)n2)cc1`: 6 µM.
Next, `Nc1nc(CN2CCC(Cc3ccccc3)CC2)nc(Nc2ccccc2)n1`: 1.95 µM; `c1ccc(-c2nnc(-c3c[nH]c4ccccc34)nc2-c2ccccc2)cc1`: 7.17 µM.
For the compound `COc1ccc(NC(C)C(=O)N/N=C/c2c(O)ccc3ccccc23)cc1` (centres undefined), the EC50 is 1.14 µM.
The figure for `COC(=O)c1ccc(CSc2n[nH]c(=S)s2)o1` is 3.25 µM; for `O=c1cc(N2CCCCC2)c(-c2ccccc2)nn1Cc1c(Cl)cccc1Cl` it is 4.69 µM.
The figure for `Cc1ccccc1OCCCCc1c(C)n[nH]c1C` is 7.37 µM; for `c1ccc2c(Nc3nc4c(s3)CCCC4)cccc2c1` it is 1.17 µM.
In the case of `O=C(NNc1ccccc1Cl)C(O)(c1cccc(C(F)(F)F)c1)c1cccc(C(F)(F)F)c1`, the EC50 is 2.61 µM.
Turning to `Oc1c(N=NC(=S)Nc2ccccc2F)c2ccccc2n1Cc1ccc(F)cc1`, the EC50 was 0.892 µM.
Regarding `Cc1ncc(CO)c(/C=N/NC(=O)c2cc(Br)ccc2O)c1O`, the EC50 was 1.52 µM.
The figure for `CCN1CCN(C(=O)N[C@@H](C(=O)N[C@@H]2C(=O)N3[C@@H]2SC(C)(C)[C@@H]3C(=O)O)c2ccccc2)C(=O)C1=O` is 0.285 µM; for `CC1CCN(c2nc(CN3CCCCC3)nc3scc(-c4ccccc4)c23)CC1` it is 3.02 µM.
The figure for `COc1ccc(-c2cn[nH]c2-c2ccc(OC)cc2)cc1` is 6.64 µM.
For `CC(C)CN(C(=O)COc1ccc(-c2nnco2)cc1)C1CCS(=O)(=O)C1` (centres undefined), the EC50 is > 15 µM (inactive).
In the case of `CCCCn1c(=O)c(C(=O)NCCc2ccccc2)c(O)c2ccccc21`, the EC50 was 3.73 µM.
Regarding `Cc1cc(C)c(C2C3=C(Nc4c2c(C)nn4-c2ccccn2)c2ccccc2C3=O)c(C)c1` (centres undefined), the EC50 was 1.45 µM.
The figure for `O=C(Nc1ccc(OC(F)(F)F)cc1)N1CCN(c2ccnc3cc(Cl)ccc23)CC1` is 9.37 µM.
Next, `CC(C)(C)c1nnc(N/N=C/c2cc(Br)ccc2O)n(N)c1=O`: 2.12 µM.
Next, `O=C(CC1CC2CCC1C2)Nc1nc(-c2ccccn2)cs1` (centres undefined): 2.4 µM.
Take `COc1ccc(CNC(=O)c2c(C)oc3c2C(=O)c2ccccc2C3=O)cc1`: the EC50 was 0.81 µM.
The figure for `CC1(C)CC[C@]2(C(=O)O)CC[C@]3(C)C(=CCC4[C@@]5(C)CC[C@H](O)C(C)(C)C5CC[C@]43C)C2C1` (some centres undefined) is 2.69 µM; for `O=C(O)CN1C(=O)/C(=C\c2cc(Br)ccc2OCc2ccc(Cl)cc2)SC1=S` it is 1.56 µM.
As to `CN1c2ccsc2/C(=N/Nc2ccccc2)CS1(=O)=O`, the EC50 was 2.21 µM.
Next, `CCc1noc(C)c1C(=O)OCC(=O)NC(=O)c1ccccc1`: > 15 µM (inactive).
Next, `Cc1cccc(/C=C2\Sc3ccc(C(=O)N4CCC(C)CC4)cc3N(C)C2=O)c1`: 2.69 µM.
The figure for `S=c1nc2ccccc2c2nc(-c3ccccc3)[nH]n12` is 5.36 µM; for `CN(C)c1ccc(O)c2c1CC1CC3C(N(C)C)C(=O)C(C(N)=O)=C(O)[C@@]3(O)C(=O)C1=C2O` (some centres undefined) it is 0.096 µM.
With `CCCCn1c(O)c(C(C)=Nc2ccc(OCC)cc2)c(=O)[nH]c1=O`, the EC50 was 9.75 µM.
The figure for `NCCS(=O)(=O)NC1CCCCC1` is > 15 µM (inactive).
As to `Cc1ccc(Cl)cc1N1CCN(C(=O)c2cn(C)c(=O)c3c2c2ccccc2n3C)CC1`, the EC50 was 4.92 µM.
With `C/C(=N\N=C(/N)SC1CC(=O)N(c2ccc(Br)cc2)C1=O)c1cccs1` (centres undefined), the EC50 is 5.03 µM.
On to `Cn1ncc(Cl)c1C(=O)N1CCC2(CC1)OCCO2`, for which the EC50 was > 15 µM (inactive).
The figure for `N#C/C(=C(/O)COc1ccccc1)c1nc2ccccc2s1` is 14.5 µM; for `O=C(O)C(c1ccccc1)N1C(=O)/C(=C\c2ccc(-c3cccc(Cl)c3)o2)SC1=S` (centres undefined) it is 1.94 µM; for `O=C(NCc1nnc(SCC(=O)N2CCOCC2)o1)c1c(F)cccc1F` it is > 15 µM (inactive).
Next, `N=C1/C(=C\c2ccc(-c3cccc(C(=O)O)c3)o2)C(=O)N=C2SC=C(c3ccccc3)N12`: 1.2 µM.
